Results as given in patent US20230104690A1, “MATRIX METALLOPROTEINASE INHIBITORS (MMPIs)” (Brandon University, priority 2020, published 2023).
“Also recorded” adds a separate entry of the source.

Legend:
[1] = molecular target: T1, MMP3 (Rattus norvegicus, UniProt P03957); experiment: NFF-3 fluorescence assay in C6-13 (C6-Cx43) glioma conditioned media; format: biochemical; conditions: 50 μM and 100 μM, over six hours, relative to untreated controls
T1 construct: endogenous in cells; host or cells: C6-13 (C6 glioma clone stably expressing Cx43), conditioned serum-free medium
T1 sequence (P03957 98-475): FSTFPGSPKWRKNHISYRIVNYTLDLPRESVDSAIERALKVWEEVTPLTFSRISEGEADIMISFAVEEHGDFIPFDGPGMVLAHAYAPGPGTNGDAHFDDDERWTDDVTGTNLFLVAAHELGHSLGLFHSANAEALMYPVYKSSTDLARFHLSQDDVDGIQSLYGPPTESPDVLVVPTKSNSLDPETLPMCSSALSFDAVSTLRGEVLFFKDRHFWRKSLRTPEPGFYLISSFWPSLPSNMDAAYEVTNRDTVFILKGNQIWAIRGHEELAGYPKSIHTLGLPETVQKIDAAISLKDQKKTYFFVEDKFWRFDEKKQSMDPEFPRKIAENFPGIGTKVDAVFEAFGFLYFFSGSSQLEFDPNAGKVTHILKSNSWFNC
Experimental: Glioma Cell Culture. […] Anal Bioanal Chem 2010, 398 (1), 477-87). […] Zymography. […] SDS-PAGE/Western Blotting. Conditioned media was collected and chilled on ice. […] Proteins were pelleted by centrifugation (12 minutes, 4800 g). Proteins were suspended in SDS-PAGE loading buffer. […] NFF-3 Fluorescence Assay. […] After conditioning, the media was collected. Each experimental condition had its own control condition. […] The experiment was conducted at 37° C. […] The docking of MMP Inhibitors.
The synthesis of the MMP Inhibitors and NFF3 analysis. The leucine-tryptophan (Leu-Trp) backbone, AP-1, and AP-2 were synthesized. All synthesized compounds were analyzed by mass spectrometry (FIG. 3). The NFF-3 assay was used to determine the biological inhibition of MMP-3 activity for ilomastat and synthesized compounds, Leu-Trp, and AP-1 relative to untreated controls. […] Linear responses of MMP3 activity was robustly measured from about 30 to about 300 minutes. All compounds were tested at a concentration of 50 μM and 100 μM, and compared to determine MMP3 suppression. From FIG. 6, concentration dependent inhibition was observed.

[2] = molecular target: T1, MMP3; experiment: Gelatin zymography of C6-13 conditioned media; format: cell-based; conditions: ilomastat 0-100 uM, 0.1% gelatin
Description: (§1) Glioma Cell Culture. The C6 glioma line (American Type Culture Collection, ATCC) maintains many characteristics of GBM including cancer stem cell behavior ability to generate GBMs in rats upon injection in the brain (Grobben, B.; De Deyn, P. P.; Slegers, H., Rat C6 glioma as experimental model system for the study of glioblastoma growth and invasion. Cell Tissue Res 2002, 310 (3), 257-70; Zheng, X.; Shen, G.; Yang, X.; Liu, W., Most C6 cells are cancer stem cells: evidence from clonal and population analyses. Cancer Res 2007, 67 (8), 3691-7; and Beljebbar, A.; Dukic, S.; Amharref, N.; Manfait, M., Ex vivo and in vivo diagnosis of C6 glioblastoma development by Raman spectroscopy coupled to a microprobe. Anal Bioanal Chem 2010, 398 (1), 477-87). […] Cell Mol Neurobiol 1992, 12 (2), 163-75.) Glioma cells were maintained at 37° C., 95% air and 5% CO2 in a humidified incubator. Cells were cultivated in high glucose DMEM (4.0 g/L, ThermoFisher Scientific) containing L-glutamine (4.0 mM), antibiotics (penicillin, 100 IU/mL; streptomycin, 100 μg/mL) and 10% fetal bovine serum (FBS; Gibco). For collection of conditioned media, cells were plated in 6-well plate (200,000 cells/well) and grown to 80% confluency over the course of 3 days. […] Protein concentration was determined by BCA assay and samples suspended in SDS loading buffer (no DTT and without boiling). […]

[3] = test system: C6 glioma cells; conditions: ≤100 uM, propidium iodide stain, data not shown
Description: as §1

SMILES	Inhibition of MMP-3 activity (NFF-3 fluorescence) [1]	Loss of MMP3 activity (zymography) [2]	Cell death [3] [%]
CC(C)C[C@H](N)C(=O)N[C@@H](Cc1c[nH]c2ccccc12)C(=O)O [Leu-Trp]	can act as a competitive inhibitor	–	–
CNC(=O)[C@H](Cc1c[nH]c2ccccc12)NC(=O)[C@@H](CC(=O)NO)CC(C)C [Ilomastat]	perform better than Leu-Trp at inhibiting MMP-3	concentration-dependent inhibition of secreted MMP3; also recorded: dose-dependent loss of MMP3 activity	< 1
